Structures are written as SMILES.

For the experiment, the system named is human T cells. Put plainly: T-cell adhesion to fibronectin in presence of SDF-1α. It counts as cell-based. The following applies: 2 h pretreatment prior to SDF-1α, FN-coated plates, relative to untreated T cells. The procedure:
Human T cells. T cells from the peripheral blood of healthy donors were isolated by negative selection using a RosetteSep™ antibody cocktail containing mabs against CD16, CD19, CD36, and CD56 (StemCell Technologies, Vancouver, BC). After incubation with the cocktail for 20 min at room temperature, blood samples were diluted in PBS with 2% fetal bovine serum, loaded on a Ficoll column (ICN Biomedical, Aurora, Ohio), and centrifuged at 1200× g for 20 min at room temperature. The cells were removed from the Ficoll column, washed, and cultured in RPMI containing antibiotics and 10% heat-inactivated FCS. T-cell adhesion assays. Adhesion of T cells to FN was assayed as described (Ariel et al., 1998). Briefly, flat-bottomed microtiter well plates were precoated with CSPG or FN (10 μg/ml) and the remaining binding sites were blocked with 1% BSA. […]-labeled T cells were resuspended in RPMI medium supplemented with 1% HEPES buffer and 0.1% BSA (adhesion medium). After preincubation 2 h with CSPG-DS at the indicated concentrations, the T cells were incubated (30 min, 37° C., humidified atmosphere of 7% CO2 in air) with SDF-1α and then added to the wells. […] Adherent cells were lysed with lysis buffer (1 M NaOH, 0.1% Triton X-100 in H2O), removed, and counted with a γ-counter (Packard, Downers Grove, Ill.).

On to `CC(=O)N[C@H]1C(O)O[C@H](COS(=O)(=O)O)[C@H](O)[C@@H]1O[C@@H]1OC(C(=O)O)=C[C@H](O)[C@H]1O` (stereo partly drawn) [CSPG-DS, 2-acetoamido-2-deoxy-3-O-(β-D-gluco-4-enepyranosyluronic acid)-6-O-sulfo-D-galactose], for which the T-cell adhesion entry is on record as “significantly reduced”.

The values are drawn from US20070010484A1, “Method for treating or inhibiting the effects of injuries or diseases that result in neuronal degeneration and method for promoting neurogenesis” (YEDA RESEARCH AND DEVELOPMENT CO. LTD., priority 2003, published 2007).
